Test results as given in PubChem BioAssay AID2060340 (Molecular Pharmacology Branch, DTP, NCI, 2025).
Values joined by “and” are separate entries in the source; they are usually repeats but may differ in a detail not shown here. Equal values may be shown once.

Test system: 349418-098-R-PDC spheroids, viability, % test/control
Test: Anticancer human tumor 349418-098-R-PDC patient-derived lung adenocarcinoma cell line growth inhibition [IpAb]
Conditions: spheroids with HUVEC and MSC; for viability, T/C: stronger effect = lower value
How it was run: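 Spheroids of 60% malignant cells, 25% HUVEC and 15% MSC were exposed to targeted agents combined with ipatasertib or abemaciclib. Doses started at or near clinical Cmax (10 microM when unknown) and fell in half-log steps.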

[1] = curve of first compound, second compound 0.01 µM
[2] = curve of first compound, second compound 0.0316 µM
[3] = curve of first compound, second compound 0.1 µM
[4] = curve of first compound, second compound 0.316 µM
[5] = curve of first compound, second compound 1 µM
[6] = second compound 0.01 µM, first compound 0.0316 µM
[7] = second compound 0.01 µM, first compound 0.1 µM
[8] = second compound 0.01 µM, first compound 0.316 µM
[9] = second compound 0.01 µM, first compound 1 µM
[10] = second compound 0.01 µM, first compound 3.16 µM
[11] = second compound 0.01 µM, first compound 10 µM
[12] = second compound 0.0316 µM, first compound 0.0316 µM
[13] = second compound 0.0316 µM, first compound 0.1 µM
[14] = second compound 0.0316 µM, first compound 0.316 µM
[15] = second compound 0.0316 µM, first compound 1 µM
[16] = second compound 0.0316 µM, first compound 3.16 µM
[17] = second compound 0.0316 µM, first compound 10 µM
[18] = second compound 0.1 µM, first compound 0.0316 µM
[19] = second compound 0.1 µM, first compound 0.1 µM
[20] = second compound 0.1 µM, first compound 0.316 µM
[21] = second compound 0.1 µM, first compound 1 µM
[22] = second compound 0.1 µM, first compound 3.16 µM
[23] = second compound 0.1 µM, first compound 10 µM
[24] = second compound 0.316 µM, first compound 0.0316 µM
[25] = second compound 0.316 µM, first compound 0.1 µM
[26] = second compound 0.316 µM, first compound 0.316 µM
[27] = second compound 0.316 µM, first compound 1 µM
[28] = second compound 0.316 µM, first compound 3.16 µM
[29] = second compound 0.316 µM, first compound 10 µM
[30] = second compound 1 µM, first compound 0.0316 µM
[31] = second compound 1 µM, first compound 0.1 µM
[32] = second compound 1 µM, first compound 0.316 µM
[33] = second compound 1 µM, first compound 1 µM
[34] = second compound 1 µM, first compound 3.16 µM
[35] = second compound 1 µM, first compound 10 µM

Cn1nccc1Nc1nccc(-c2ccn(C(CO)c3ccc(Cl)c(F)c3)c(=O)c2)n1 (configuration not stated) + CCN1CCN(Cc2ccc(Nc3ncc(F)c(-c4cc(F)c5nc(C)n(C(C)C)c5c4)n3)nc2)CC1
IC50 [1]: < 31.6 nM
IC50 [2]: < 31.6 nM
IC50 [3]: < 31.6 nM
IC50 [4]: < 31.6 nM
IC50 [5]: < 31.6 nM
viability, T/C [6]: 34.3%
viability, T/C [7]: 31.1%
viability, T/C [8]: 28.1%
viability, T/C [9]: 27.3%
viability, T/C [10]: 23.5%
viability, T/C [11]: 19.9%
viability, T/C [12]: 21.5%
viability, T/C [13]: 23%
viability, T/C [14]: 18.6%
viability, T/C [15]: 18%
viability, T/C [16]: 17.1%
viability, T/C [17]: 16.3%
viability, T/C [18]: 13.1%
viability, T/C [19]: 13.4%
viability, T/C [20]: 13.2%
viability, T/C [21]: 12.7%
viability, T/C [22]: 13.3%
viability, T/C [23]: 13.5%
viability, T/C [24]: 11.6%
viability, T/C [25]: 11.1%
viability, T/C [26]: 11.2%
viability, T/C [27]: 10.8%
viability, T/C [28]: 13%
viability, T/C [29]: 13.2%
viability, T/C [30]: 12.7%
viability, T/C [31]: 10.4%
viability, T/C [32]: 11.1%
viability, T/C [33]: 11.7%
viability, T/C [34]: 12.5%
viability, T/C [35]: 12.2%

CC(C)NCC(C(=O)N1CCN(c2ncnc3c2C(C)CC3O)CC1)c1ccc(Cl)cc1 (configuration not stated)
viability, T/C (compound 0.1 µM): 84.9% [middle of 13 runs]
viability, T/C (compound 1 µM): 24.5% [middle of 13 runs]
viability, T/C (compound 3.16 µM): 11.8% [middle of 13 runs]
viability, T/C (compound 10 µM): 7.07% [middle of 11 runs]
IC50 (compound alone, run of 05/18/2021): 350 nM [middle of 13 runs]

C=CCn1c(=O)c2cnc(Nc3ccc(N4CCN(C)CC4)cc3)nc2n1-c1cccc(C(C)(C)O)n1
viability, T/C (compound 0.0316 µM): 91.8% and 105%
viability, T/C (compound 0.1 µM): 84.5% and 88.7%
viability, T/C (compound 0.316 µM): 18.8% and 26.7%
viability, T/C (compound 1 µM): 5.04% and 4.87%
viability, T/C (compound 3.16 µM): 4.87% and 4.84%
viability, T/C (compound 10 µM): 6.19% and 4.54%
IC50 (curve of compound): 183 nM and 205 nM

CCCS(=O)(=O)Nc1ccc(F)c(C(=O)c2c[nH]c3ncc(-c4ccc(Cl)cc4)cc23)c1F
viability, T/C (compound 0.0316 µM): 69.3% and 61.6%
viability, T/C (compound 0.1 µM): 52% and 49.9%
viability, T/C (compound 0.316 µM): 51.7% and 55.5%
viability, T/C (compound 1 µM): 49.4% and 45.2%
viability, T/C (compound 3.16 µM): 50.4% and 46.2%
viability, T/C (compound 10 µM): 22.7% and 19.6%
IC50 (curve of compound): 1850 nM and 1090 nM

Cn1cnc2c(F)c(Nc3ccc(Br)cc3Cl)c(C(=O)NOCCO)cc21 + CCN1CCN(Cc2ccc(Nc3ncc(F)c(-c4cc(F)c5nc(C)n(C(C)C)c5c4)n3)nc2)CC1
IC50 [1]: < 9.49 nM
IC50 [2]: < 9.49 nM
IC50 [3]: < 9.49 nM
IC50 [4]: < 9.49 nM
IC50 [5]: < 9.49 nM
viability, T/C (second compound 0.01 µM, first compound 0.00949 µM): 41.1%
viability, T/C (second compound 0.01 µM, first compound 0.03 µM): 33.9%
viability, T/C (second compound 0.01 µM, first compound 0.0949 µM): 27.2%
viability, T/C (second compound 0.01 µM, first compound 0.3 µM): 28.7%
viability, T/C (second compound 0.01 µM, first compound 0.949 µM): 17.3%
viability, T/C (second compound 0.01 µM, first compound 3 µM): 8.8%
viability, T/C (second compound 0.0316 µM, first compound 0.00949 µM): 26.7%
viability, T/C (second compound 0.0316 µM, first compound 0.03 µM): 21.7%
viability, T/C (second compound 0.0316 µM, first compound 0.0949 µM): 18.9%
viability, T/C (second compound 0.0316 µM, first compound 0.3 µM): 17.9%
viability, T/C (second compound 0.0316 µM, first compound 0.949 µM): 12.1%
viability, T/C (second compound 0.0316 µM, first compound 3 µM): 7.93%
viability, T/C (second compound 0.1 µM, first compound 0.00949 µM): 15.1%
viability, T/C (second compound 0.1 µM, first compound 0.03 µM): 14.7%
viability, T/C (second compound 0.1 µM, first compound 0.0949 µM): 12%
viability, T/C (second compound 0.1 µM, first compound 0.3 µM): 11.2%
viability, T/C (second compound 0.1 µM, first compound 0.949 µM): 9.1%
viability, T/C (second compound 0.1 µM, first compound 3 µM): 6.69%
viability, T/C (second compound 0.316 µM, first compound 0.00949 µM): 12.1%
viability, T/C (second compound 0.316 µM, first compound 0.03 µM): 11.2%
viability, T/C (second compound 0.316 µM, first compound 0.0949 µM): 10.1%
viability, T/C (second compound 0.316 µM, first compound 0.3 µM): 9.23%
viability, T/C (second compound 0.316 µM, first compound 0.949 µM): 8.49%
viability, T/C (second compound 0.316 µM, first compound 3 µM): 7.04%
viability, T/C (second compound 1 µM, first compound 0.00949 µM): 9.97%
viability, T/C (second compound 1 µM, first compound 0.03 µM): 10.1%
viability, T/C (second compound 1 µM, first compound 0.0949 µM): 10.6%
viability, T/C (second compound 1 µM, first compound 0.3 µM): 8.23%
viability, T/C (second compound 1 µM, first compound 0.949 µM): 8.1%
viability, T/C (second compound 1 µM, first compound 3 µM): 6.68%

Cn1nccc1Nc1nccc(-c2ccn(C(CO)c3ccc(Cl)c(F)c3)c(=O)c2)n1 (configuration not stated)
viability, T/C (compound 0.0316 µM): 50.1% and 54.6%
viability, T/C (compound 0.1 µM): 42.6% and 45.7%
viability, T/C (compound 0.316 µM): 57.2% and 49.9%
viability, T/C (compound 1 µM): 44.4% and 49.7%
viability, T/C (compound 3.16 µM): 29% and 30.1%
viability, T/C (compound 10 µM): 19.7% and 21.3%

Cc1nc(NC(=O)N2CCCC2C(N)=O)sc1-c1ccnc(C(C)(C)C(F)(F)F)c1 (configuration not stated) + CCN1CCN(Cc2ccc(Nc3ncc(F)c(-c4cc(F)c5nc(C)n(C(C)C)c5c4)n3)nc2)CC1
IC50 [1]: 47.5 nM
IC50 [2]: < 31.6 nM
IC50 [3]: < 31.6 nM
IC50 [4]: < 31.6 nM
IC50 [5]: < 31.6 nM
viability, T/C [6]: 59.8%
viability, T/C [7]: 32.7%
viability, T/C [8]: 17.9%
viability, T/C [9]: 14.1%
viability, T/C [10]: 10.2%
viability, T/C [11]: 8.7%
viability, T/C [12]: 40.5%
viability, T/C [13]: 27.1%
viability, T/C [14]: 12.1%
viability, T/C [15]: 7.43%
viability, T/C [16]: 7.43%
viability, T/C [17]: 8.13%
viability, T/C [18]: 20.3%
viability, T/C [19]: 13.9%
viability, T/C [20]: 9.49%
viability, T/C [21]: 7.63%
viability, T/C [22]: 7.46%
viability, T/C [23]: 7.65%
viability, T/C [24]: 15.9%
viability, T/C [25]: 12.6%
viability, T/C [26]: 9.79%
viability, T/C [27]: 8.43%
viability, T/C [28]: 9%
viability, T/C [29]: 7.65%
viability, T/C [30]: 12.8%
viability, T/C [31]: 11.4%
viability, T/C [32]: 9.14%
viability, T/C [33]: 7.42%
viability, T/C [34]: 7.89%
viability, T/C [35]: 6.94%

Cn1ncnc1[C@H]1c2n[nH]c(=O)c3cc(F)cc(c23)N[C@@H]1c1ccc(F)cc1
viability, T/C (compound 0.000316 µM): 96.5% and 98.7%
viability, T/C (compound 0.001 µM): 100% and 99.5%
viability, T/C (compound 0.00316 µM): 94.5% and 104%
viability, T/C (compound 0.01 µM): 94.8% and 100%
viability, T/C (compound 0.0316 µM): 83.4% and 81.5%
viability, T/C (compound 0.1 µM): 75.5% and 78.4%
IC50 (curve of compound): > 100 nM
